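Values below derive from 48-hour exposures of cells grown in 96-well plates, with endpoints linearly interpolated between the two concentrations bracketing the appropriate inhibition level. GI50: concentration for 50% inhibition of growth.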 Calls of active or inactive are those of the source. Rule as the data show it: active = GI50 up to about 1.1 µM and inactive = higher.
Legend:
Assay in all cases: NCI tumour cell line growth inhibition, 48 h
[1] = test system: MCF7
[2] = test system: HT-29
[3] = test system: BT-549
[4] = test system: MDA-MB-231
[5] = test system: NCI-H522
[6] = test system: CCRF-CEM
[7] = test system: K562
[8] = test system: SK-MEL-28
[9] = test system: CAKI-1
[10] = test system: HCT-15
[11] = test system: DU-145
[12] = test system: NCI-H460
[13] = test system: HCC 2998
[14] = test system: NCI/ADR-RES
[15] = test system: HOP-92
[16] = test system: A549
[17] = test system: HL-60
[18] = test system: OVCAR-5
[19] = test system: OVCAR-8
[20] = test system: SF-539
[21] = test system: SK-OV-3
[22] = test system: HOP-62
[23] = test system: ACHN
[24] = test system: IGROV-1
[25] = test system: 786-0
[26] = test system: OVCAR-3
[27] = test system: T47D
[28] = test system: UO-31
[29] = test system: PC-3
[30] = test system: Hs-578T
[31] = test system: A498
[32] = test system: MDA-MB-435
[33] = test system: OVCAR-4
[34] = test system: M14
[35] = test system: U-251
[36] = test system: MDA-N
[37] = test system: NCI-H226
[38] = test system: SNB-75
[39] = test system: SF-268
[40] = test system: EKVX
[41] = test system: SW-620
[42] = test system: MOLT-4
[43] = test system: Malme-3M
[44] = test system: LOX IMVI
[45] = test system: SN12C
[46] = test system: KM12
[47] = test system: RPMI-8226
[48] = test system: UACC-257
[49] = test system: SK-MEL-5
[50] = test system: SK-MEL-2
[51] = test system: SR
[52] = test system: UACC-62
[53] = test system: TK-10
[54] = test system: RXF 393
[55] = test system: SNB-19
[56] = test system: HCT-116
[57] = test system: NCI-H23
[58] = test system: SF-295
[59] = test system: COLO 205

Question: What does the source list for `CCCCCCC(C)c1ccc2c(c1)C(=O)c1nc3ccncc3c(=O)n1-2` (stereo not drawn)?
Answer: GI50 [1]: 5.06 µM (inactive); GI50 [2]: 2.1 µM (inactive); GI50 [3]: 4.21 µM (inactive); GI50 [4]: 2.54 µM (inactive); GI50 [5]: 1.29 µM (inactive); GI50 [6]: 0.836 µM (active); GI50 [7]: 0.419 µM (active); GI50 [8]: 14.5 µM (inactive); GI50 [9]: 2.54 µM (inactive); GI50 [10]: 1.3 µM; GI50 [11]: 14.6 µM (inactive); GI50 [12]: 2.07 µM (inactive); GI50 [13]: 3.94 µM (inactive); GI50 [14]: 5.68 µM (inactive); GI50 [15]: 78.3 µM (inactive); GI50 [16]: 5.65 µM (inactive); GI50 [17]: 0.26 µM (active); GI50 [18]: 5.43 µM (inactive); GI50 [19]: 6.87 µM (inactive); GI50 [20]: 4.44 µM (inactive); GI50 [21]: 5.9 µM (inactive); GI50 [22]: 5.13 µM (inactive); GI50 [23]: 3.33 µM (inactive); GI50 [24]: 2.51 µM (inactive); GI50 [25]: 2.29 µM (inactive); GI50 [26]: 1.45 µM (inactive); GI50 [27]: 3.63 µM (inactive); GI50 [28]: 2.17 µM (inactive); GI50 [29]: 3.54 µM (inactive); GI50 [30]: 9.62 µM (inactive); GI50 [31]: 4.32 µM (inactive); GI50 [32]: 0.352 µM (active); GI50 [33]: 1.66 µM (inactive); GI50 [34]: 2.94 µM (inactive); GI50 [35]: 4.26 µM (inactive); GI50 [36]: 0.237 µM (active); GI50 [37]: 4.16 µM (inactive); GI50 [38]: 8.59 µM (inactive); GI50 [39]: 36.2 µM (inactive); GI50 [40]: 4.25 µM (inactive); GI50 [41]: 2.61 µM (inactive); GI50 [42]: 0.661 µM (active); GI50 [43]: 0.235 µM (active); GI50 [44]: 1.06 µM (active); GI50 [45]: 4.33 µM (inactive); GI50 [46]: 1.79 µM (inactive); GI50 [47]: 1.15 µM (inactive); GI50 [48]: 2.84 µM (inactive); GI50 [49]: 1.42 µM (inactive); GI50 [50]: 3.61 µM (inactive); GI50 [51]: 0.225 µM (active); GI50 [52]: 2.29 µM (inactive); GI50 [53]: 4.86 µM (inactive); GI50 [54]: 4.06 µM (inactive); GI50 [55]: 4.81 µM (inactive); GI50 [56]: 2.5 µM (inactive); GI50 [57]: 2.14 µM (inactive); GI50 [58]: 6.38 µM (inactive); GI50 [59]: 2.87 µM (inactive)

Question: Which GI50 [1] does the source give for `CC(=O)Oc1cc2c(cc1OCC(F)(F)F)[C@H]1CC[C@]3(C)[C@@H](OC(C)=O)CC[C@H]3[C@@H]1CC2=O` here?
Answer: Its GI50 is 18.9 µM (inactive).

Question: What about the GI50 [2] of the same compound?
Answer: The GI50 was 23.9 µM (inactive).

Question: What about the GI50 [3] of the same compound?
Answer: Its GI50 is 18.4 µM (inactive).

Question: What about the GI50 [4] of the same compound?
Answer: Its GI50 is 11.1 µM (inactive).

Question: What about the GI50 [5] of the same compound?
Answer: Its GI50 is 20 µM (inactive).

Question: What about the GI50 [6] of the same compound?
Answer: Its GI50 is 15.3 µM (inactive).

Question: And the GI50 [7]?
Answer: The GI50 was 16.6 µM (inactive).

Question: What about the GI50 [8] of the same compound?
Answer: The GI50 was 22.2 µM (inactive).

Question: What about the GI50 [9] of the same compound?
Answer: Its GI50 is 17.4 µM (inactive).

Question: What about the GI50 [10] of the same compound?
Answer: Its GI50 is 16.6 µM.

Question: What about the GI50 [11] of the same compound?
Answer: Its GI50 is 20.7 µM (inactive).

Question: And the GI50 [12]?
Answer: The GI50 was 26.9 µM (inactive).

Question: What about the GI50 [13] of the same compound?
Answer: Its GI50 is 16.8 µM (inactive).

Question: And the GI50 [14]?
Answer: Its GI50 is 15.3 µM (inactive).

Question: What about the GI50 [15] of the same compound?
Answer: Its GI50 is 13.2 µM (inactive).

Question: And the GI50 [16]?
Answer: Its GI50 is 17.6 µM (inactive).

Question: And the GI50 [17]?
Answer: Its GI50 is 13.9 µM (inactive).

Question: What about the GI50 [18] of the same compound?
Answer: The GI50 was 19.8 µM (inactive).

Question: What about the GI50 [19] of the same compound?
Answer: The GI50 was 20.9 µM (inactive).

Question: What about the GI50 [20] of the same compound?
Answer: The GI50 was 19.3 µM (inactive).

Question: What about the GI50 [21] of the same compound?
Answer: The GI50 was 22 µM (inactive).

Question: And the GI50 [22]?
Answer: Its GI50 is 25.1 µM (inactive).

Question: And the GI50 [23]?
Answer: The GI50 was 18.9 µM (inactive).

Question: What about the GI50 [24] of the same compound?
Answer: Its GI50 is 18.7 µM (inactive).

Question: What about the GI50 [25] of the same compound?
Answer: The GI50 was 26.4 µM (inactive).

Question: What about the GI50 [26] of the same compound?
Answer: The GI50 was 19.5 µM (inactive).

Question: What about the GI50 [27] of the same compound?
Answer: Its GI50 is 23.3 µM (inactive).

Question: And the GI50 [28]?
Answer: The GI50 was 16 µM (inactive).

Question: What about the GI50 [29] of the same compound?
Answer: The GI50 was 14.5 µM (inactive).

Question: What about the GI50 [30] of the same compound?
Answer: The GI50 was 13.7 µM (inactive).

Question: And the GI50 [31]?
Answer: Its GI50 is 6.18 µM (inactive).

Question: And the GI50 [32]?
Answer: The GI50 was 21.6 µM (inactive).

Question: What about the GI50 [33] of the same compound?
Answer: Its GI50 is 17.5 µM (inactive).

Question: And the GI50 [34]?
Answer: The GI50 was 26.4 µM (inactive).

Question: And the GI50 [35]?
Answer: The GI50 was 16.4 µM (inactive).

Question: What about the GI50 [36] of the same compound?
Answer: The GI50 was 24.1 µM (inactive).

Question: And the GI50 [37]?
Answer: The GI50 was 46.6 µM (inactive).

Question: What about the GI50 [38] of the same compound?
Answer: Its GI50 is 16 µM (inactive).

Question: And the GI50 [39]?
Answer: Its GI50 is 21.1 µM (inactive).

Question: What about the GI50 [40] of the same compound?
Answer: The GI50 was 22.8 µM (inactive).

Question: What about the GI50 [41] of the same compound?
Answer: Its GI50 is 21.7 µM (inactive).

Question: And the GI50 [42]?
Answer: The GI50 was 15.6 µM (inactive).

Question: And the GI50 [43]?
Answer: Its GI50 is 16.8 µM (inactive).

Question: And the GI50 [44]?
Answer: The GI50 was 15.4 µM (inactive).

Question: What about the GI50 [45] of the same compound?
Answer: Its GI50 is 21 µM (inactive).

Question: What about the GI50 [46] of the same compound?
Answer: Its GI50 is 27.7 µM (inactive).

Question: And the GI50 [47]?
Answer: Its GI50 is 22.3 µM (inactive).

Question: And the GI50 [48]?
Answer: The GI50 was 18.9 µM (inactive).

Question: What about the GI50 [49] of the same compound?
Answer: The GI50 was 17 µM (inactive).

Question: What about the GI50 [50] of the same compound?
Answer: Its GI50 is 16.9 µM (inactive).

Question: And the GI50 [51]?
Answer: Its GI50 is 20.7 µM (inactive).

Question: And the GI50 [52]?
Answer: Its GI50 is 12.2 µM (inactive).

Question: What about the GI50 [53] of the same compound?
Answer: Its GI50 is 17.5 µM (inactive).

Question: What about the GI50 [54] of the same compound?
Answer: Its GI50 is 13.9 µM (inactive).

Question: What about the GI50 [55] of the same compound?
Answer: Its GI50 is 18.8 µM (inactive).

Question: And the GI50 [56]?
Answer: Its GI50 is 19.3 µM (inactive).

Question: And the GI50 [57]?
Answer: The GI50 was 21.2 µM (inactive).

Question: And the GI50 [58]?
Answer: Its GI50 is 25.1 µM (inactive).

Question: What about the GI50 [59] of the same compound?
Answer: Its GI50 is 30.8 µM (inactive).

Reference: ChEMBL document CHEMBL1201862, “PubChem BioAssay data set” (2004)
